Structures are written as SMILES.

In general, melting point refers to the temperature, or range, at which the solid turns liquid. As for `CCCc1nc2c(N)nc3ccc(-c4cccc(NC(C)=O)c4)cc3c2s1`, the melting point lay in the range of 242 to 245 °C.
The result for `CN(C)CCNC(=O)N1CCN(c2ccc(Cl)cc2)CC1` reads 125 to 128 °C; that for `CC(C)(CO)NS(=O)(=O)c1cnc(NC(=O)c2cnn3c(C(F)F)cc(-c4ccc(C(F)(F)F)cc4)nc23)s1`, 280 °C.
As for `CCCNC(=O)C1(CCCCP(=O)(c2ccccc2)c2ccccc2)c2ccccc2-c2ccccc21`, the figure is 163 to 165 °C.
As for `CC(C)(C)NNC(=O)c1cccc(Cl)c1`, the melting point was 116 to 118 °C.
As for `CCN(CC)c1ccc(/C=C/c2cc(/C=C/c3ccc4cc[nH]c4c3)[nH]n2)c(OCCN2CCOCC2)c1`, the figure is 96 to 99 °C; as for `CCCCCCCCCCCCCCCCc1cc(OC)nc(N(C)C)n1`, 49 to 50 °C.
`Cc1cc(C)cc(C(OC(C)C(c2ccccc2)c2ccccc2)N(C)C(=O)c2ccccc2)c1` (stereo unspecified): the melting point was 89 to 91 °C.
The result for `O=C(CCC1CCN(Cc2ccccc2)CC1)c1ccc(Nc2ncnc3c2CCC3O)cc1` (stereo unspecified) reads 189 to 190 °C; that for `CC(=O)NC(n1cncn1)C(Cl)(Cl)CCl` (stereo unspecified), 135 °C.
The result for `CN(Cc1ccccc1)c1c(-c2ccc(S(C)(=O)=O)cc2)cnn(-c2cccc(Cl)c2)c1=O` reads 60 to 85 °C.
The result for `CCOc1c(C#N)sc(NC(C)=O)c1C#N` reads 267 to 268 °C.
`Cc1cccc(C)c1Nc1nc(N)ns1` had a melting point of 180 °C.
The result for `CCOC(=O)Nc1nc(C(=NOC)C(=O)OCC)ns1` reads 108 to 110 °C; that for `CCCCC[C@H](CC(=O)Nc1c(F)cc(F)cc1F)c1cccc2c1OCO2`, 88 to 89 °C; that for `CCOC(=O)C1=CC(C(=O)c2ccccc2O)=CN2CCc3c([nH]c4ccc(OC)cc34)C12C(=O)OCC` (stereo unspecified), 212 °C.
As for `CN(C)C1(C#N)CCC(c2ccccc2)(N(C)C)CC1` (stereo unspecified), the figure is 82 to 92 °C; as for `NC(=O)COCCN1CCN(C(c2ccccc2)c2ccc(Cl)cc2)CC1` (single isomer, unassigned; (-)), 94.3 °C.
The result for `Oc1ccc2cc(CNCc3ccccc3)ccc2c1` reads 120 to 122 °C; that for `CCc1cc(C)cc(C)c1C1C(=O)N2CCN(OC)CCN2C1=O`, 213 to 215 °C.
The compound `COc1cc2c(cc1OS(N)(=O)=O)CC(C)(C)N(C(=O)c1cc(OC)c(OC)c(OC)c1)C2` showed a melting point of 172 to 176 °C.
`NS(=O)(=O)c1ccc(C2=C(c3ccc(F)c(F)c3)CCC2)cc1` yielded a melting point of 147 to 148 °C.
`CCCc1c(OCC2COc3c(F)cc(CC(=O)O)cc32)ccc(C(C)=O)c1O` (stereo unspecified) gave a melting point of 133 to 135 °C.
The result for `CCc1c(OC)cc(OC)c2c1C(=O)N(CSc1nnnn1-c1ccccc1)S2(=O)=O` reads 162 to 164 °C.
Compound `N#Cc1ccc2c(c1)CCc1nn(-c3ccccn3)c(O)c1-2` displayed a melting point of 232 to 233 °C.
For the compound `Cc1ccc(C2(n3ccnc3)c3ccccc3C(=O)c3ccccc32)cc1`, the melting point lay within 200 to 204 °C.
The result for `Cc1ccc(S(=O)(=O)Nc2ccc3nc(N4CCN(C)CC4)c(N4CCN(C)CC4)nc3c2)cc1` reads 234 to 237 °C.
As for `CON=C(C(=O)O)c1csc(NC(=O)OCC(Cl)(Cl)Cl)n1`, the figure is 162 to 163 °C.
`COC(=O)C1CN(C(=O)OC(C)(C)C)CCN1C(=O)/C=C/c1ccc(Sc2ccc3c(c2)OCCO3)c(C(F)(F)F)c1` (stereo unspecified) came in with a melting point of 85 to 87 °C.
As for `COc1ccc(C(F)(F)C(F)(F)F)cc1-c1csc(N)n1`, the figure is 125 °C; as for `CN1C(=O)N2C(=NC1(C)C)N(C(=O)Nc1ccc(Cl)c(Cl)c1)c1ccccc12`, 198 to 200 °C.
The result for `Cc1cc(C#Cc2cccc(-c3ccccc3)c2)ccn1` reads 56 to 58 °C.
The compound `O=S1(=O)N=CN(C2CC2)c2cc(Br)cc(F)c21` returned a melting point of 285 to 287 °C.
In turn, `CS(=O)(=O)n1ccc2c1CC(c1ccccc1)CC2=O` (stereo unspecified) showed a melting point of 172 to 173 °C.
The result for `Cc1nn(CCBr)c(=O)c2ccccc12` reads 102 to 103 °C.
The result for `Cc1nc2cccc(OCC(C)(C)C(=O)NC(C)C)c2c(N)c1C(=O)O` reads 216 to 218 °C; that for `COc1ccc(CCl)c(C)c1OC`, 67 to 68.5 °C.
The result for `CC(C)(F)c1cnn2c(-c3ccc(F)c(-c4ccc(F)cc4C#N)c3F)cnc2n1` reads 166 to 169 °C; that for `Cc1ccc(C(=O)c2cccc(C(=O)O)c2)c(O)c1`, 198 to 215 °C; that for `O=c1n(-c2ccc(Cl)c(Cl)c2)c(=O)n(SC(Cl)(Cl)Cl)n1SC(Cl)(Cl)Cl`, 167 °C.
With `Cc1ccc(C)c(CNc2c(NC(C)(C)C)c(=O)c2=O)c1`, the melting point lay within 246 to 247 °C.
As for `CCCc1nc2c(N)nc3cc(OCCCNC(=O)OC(C)(C)C)ccc3c2s1`, the figure is 146 to 149 °C.
`O=C(c1ccccc1)c1ccc(OCCCCNS(=O)(=O)c2ccc(Br)cc2)cc1` returned a melting point of 71 to 73 °C.
The result for `CCOC(=O)NC(Cc1ccccc1)c1ccccc1` (stereo unspecified) reads 74 to 75 °C.
As for `COc1cc2c(c(C(C(N)=O)c3ccccc3)c1)CC(C)O2` (stereo unspecified), the figure is 148 °C; as for `CC(C)(CCC(=O)O)N(Cl)Cl`, 35 to 38 °C.
`CCCCNc1c2c(nc3c1cnn3CC)CCc1ccccc1C2=O`: the melting point is 91 to 93 °C.
As for `NCC1COc2cc(Cl)cc(-c3ccccc3Cl)c2N1` (stereo unspecified), the figure is 108 °C; as for `Cc1ccc(-c2csc(-c3cccc(C(=O)O)c3)n2)cc1C`, 235 to 236 °C; as for `Cc1cc(OCc2ccc(-c3ccccc3-c3nnn(C(c4ccccc4)(c4ccccc4)c4ccccc4)n3)cc2)c(C(=O)c2ccccc2)c(C)n1`, 84 to 91 °C.
As for `COc1ccc2c(c1OC)CN(C=O)CCc1cc(OCc3ccccc3)ccc1CC2`, the figure is 140 to 141 °C; as for `CCOc1cc2ncc(C#N)c(Nc3ccc4c(C)cc(=O)oc4c3)c2cc1OCC`, 282 to 284 °C.
Consider `CSc1ccc(Cc2cccc(-c3c(O)c4ccc(Cl)cc4[nH]c3=O)c2)cc1`, for which the melting point lay in the range of 296 to 297 °C.
The result for `CN1CCN(c2cccc3c2C[C@H](N(C)C(=O)c2ccc(C(F)(F)F)cc2)CC3)CC1` reads 123 to 125 °C; that for `O=C(NS(=O)(=O)c1cc(C(F)(F)F)ccc1Cl)c1cn2cc(Br)cnc2n1`, more than 250 °C.
As for `C#CCn1c(-c2cc(Cl)nc(Cl)c2)nc(CC)c(OC)c1=O`, the figure is 112 to 115 °C.
As for `CCOC(=O)c1c(-c2ccccc2)n(C)n(-c2ccc(C#N)cc2)c1=O`, the figure is 218 to 220 °C.
Compound `CCOC(=O)c1cn(-c2ccc(F)cc2F)c2c(F)c(F)c(F)c(C)c2c1=O` came in with a melting point of 152 to 154 °C.
The compound `Cc1nccn1-c1ccc(O)cc1` registered a melting point of 205 to 208 °C.
As for `CC(=O)Nc1nc2c(Oc3cc(-c4ccc(C(F)(F)F)cc4NCc4cncn4Cc4ccccc4)ncn3)cccc2s1`, the figure is 264 °C; as for `CC(C)CN1C(=O)[C@@H](CC(=O)O)O[C@H](c2ccccc2OCc2ccccc2)c2cc(Cl)ccc21` (relative stereo), 194 to 197 °C.

The record behind these values is a melting point compilation (Tetko et al.; mined from patent text by program, amines drawn as free bases though some values may be those of a salt).
